Results taken from patent US20030162838A1, “Bactericide, antiseptic, dermally applicable composition, washing composition, antibacterial fiber aggregate, method for eradicating a microorganism, and method for inhibiting the proliferation of a microorgamism” (Ajinomoto Co., Inc., priority 2001, published 2003).
Entries after “also recorded” stand apart in the source; their conditions may differ.

Columns and labels:
Assay type in all cases: cell-based
[1] = system: Streptococcus mutans (ATCC35275); experiment: Antibacterial activity evaluation, agar dilution MIC; conditions: Muller-Hinton agar medium, 35° C. for 48 hours
Source text: (§1) 4-Guanidinobutyldodecanamide hydrochloride (LAG-HCl) which is a salt of an amide group-containing guanidine derivative and N-cocoyl-L-arginine ethyl ester-DL-pyrrolidone carboxylate which is an N-long chain acyl basic amino acid derivative were examined for their concentrations at which the growth of each test strain was inhibited completely (MIC).
(§2) The test strains employed were Escherichia coli (ATCC8739), Pseudomonas aeruginosa (ATCC9027), Staphylococcus aureus (ATCC6538), Streptococcus mutans (ATCC35275), Propionibacterium acnes (ATCC6919), Candida albicans (ATCC10231), Aspergillus niger (ATCC16404), Trichophyton mentagrophytes (ATCC11480) and Malassezia furfur (ATCC14521).
(§3) A bacterial cell suspension of E.coli, P.aeruginosa, S.aureus and S.mutans was obtained by incubation in a sensitive broth medium at 35° C. for 20 hours. The bacterial cell suspension of P.acnes was obtained by anaerobic incubation in a GAM agar medium at 35° C. for 20 hours followed by collecting cells with a platinum loop spatula followed by suspending the cells in a sterilized physiological saline at a cell density at about 10^8 cells/ml. The bacterial cell suspension of C.albicans was obtained by incubation in a potato dextrose agar medium at 25° C. for 48 hours followed by collecting cells with a platinum loop spatula followed by suspending the cells in a sterilized physiological saline at a cell density at about 10^6 cells/ml. The bacterial cell suspension of A.niger was obtained by incubation in a potato dextrose agar medium at 25° C. for 7 days followed by collecting cells with a platinum loop spatula followed by suspending the cells in a sterilized physiological saline followed by filtration through a sterilized gauze to adjust at a cell density at about 10^6 cells/ml. The bacterial cell suspension of T.mentagrophytes was obtained by incubation in a Sabouraud's agar medium at 25° C. for 7 days followed by collecting spores and hyphae with a platinum loop spatula followed by suspending the cells in a sterilized physiological saline followed by pelletizing using a homogenizer to adjust at a cell density at about 10^6 cells/ml. The bacterial cell suspension of M.furfur was obtained by incubation in an YMO agar medium at 25° C. for 7 days followed by suspending the test strain in a sterilized phosphate-buffered physiological saline at a cell density at about 10^6 cells/ml.
(§4) To obtain an antibacterial activity assay sample, 4-guanidinobutyldodecanamide hydrochloride was dissolved in ethylene glycol at 2% which was used as a mother liquor which was diluted with water subsequently. N-cocoyl-L-arginine ethyl ester-DL-pyrrolidone carboxylate was dissolved in water to prepare a test solution. The respective minimum growth inhibition concentration at which no microbial growth was observed was determined (μg/ml).
(§5) The agar medium (19 ml) was dissolved once and then kept at 50° C., and to this solution 1 ml of each diluted […] was added until reaching the intended concentration and mixed thoroughly and then solidified.
(§6) Subsequently, the cell suspension of each test strain was sampled using a platinum loop spatula, with which an about 1 cm line was drawn on the antibacterial agent-supplemented agar plate. Each plate was incubated at the respective temperature for the respective time period shown below. […]
(§7) For E.coli, P.aeruginosa, S.aureus, S.mutans, P.acnes, C.albicans, A.niger, T.mentagrophytes, M.furfur, the respective agar medium indicated in the Table 1 shown above was shown. […]

[2] = system: Candida albicans (ATCC10231); experiment: as above; conditions: Potato dextrose agar medium, 25° C. for 48 hours
Source text: as §1, §2, §3, §4, §5, §6, §7

[3] = system: Propionibacterium acnes (ATCC6919); experiment: as above; conditions: GAM agar medium, 35° C. for 48 hours (anaerobic incubation)
Source text: as §1, §2, §3, §4, §5, §6, §7

[4] = system: Aspergillus niger (ATCC16404); experiment: as above; conditions: Potato dextrose agar medium, 25° C. for 5 days
Source text: as §1, §2, §3, §4, §5, §6, §7

[5] = system: Escherichia coli (ATCC8739); experiment: as above; conditions: Muller-Hinton agar medium, 35° C. for 48 hours
Source text: as §1, §2, §3, §4, §5, §6, §7

[6] = system: Malassezia furfur (ATCC14521); experiment: as above; conditions: YMO agar medium, 25° C. for 7 days
Source text: as §1, §2, §3, §4, §5, §6, §7

[7] = system: Pseudomonas aeruginosa (ATCC9027); experiment: as above; conditions: Muller-Hinton agar medium, 35° C. for 48 hours
Source text: as §1, §2, §3, §4, §5, §6, §7

[8] = system: Trichophyton mentagrophytes (ATCC11480); experiment: as above; conditions: Sabouraud's agar medium, 25° C. for 7 days
Source text: as §1, §2, §3, §4, §5, §6, §7

[9] = system: Staphylococcus aureus (ATCC6538); experiment: as above; conditions: Muller-Hinton agar medium, 35° C. for 48 hours
Source text: as §1, §2, §3, §4, §5, §6, §7

test strains = experiment: Antibacterial activity evaluation, overall verdict over all test strains; conditions: summary of the MIC tables
Source text: as §1, §2, §4
(§8) In order to evaluate the contribution of acyl moiety to the antibacterial activity in amido group-containing guanidine derivatives, 4-guanidinobutyldecanamide acetate (DAG-AcOH), 4-guanidinobutyldodecanamide acetate (LAG-AcOH), 4-guanidinobutymyristilamide acetate (MAG-AcOH), 4-guanidinobutylpalmitylamide acetate (PAG-AcOH) were examined for their concentrations at which the growth of each test strain was inhibited completely (MIC).
as §2, with “aeruglnosa” for “aeruginosa”, “(ATCC11480),” for “(ATCC11480) and”, “(ATCC14521), MRSA and Cladosporium cladosporioides (IFO6348).” for “(ATCC14521).”
(§9) The respective minimum growth inhibition concentration at which no microbial growth was observed was determined (Table 4).

MRSA = experiment: Antibacterial activity evaluation, agar dilution MIC; conditions: Muller-Hinton agar medium, 35° C. for 48 hours
Source text: as §8
as §2, with “aeruglnosa” for “aeruginosa”, “(ATCC11480),” for “(ATCC11480) and”, “(ATCC14521), MRSA and Cladosporium cladosporioides (IFO6348).” for “(ATCC14521).”
The bacterial cell suspension of MRSA was obtained by incubation in a sensitive broth medium at 35° C. for 20 hours.
(§10) To obtain an antibacterial activity assay sample, each compound was dissolved in water to prepare a test solution, which was used as a mother liquor which was diluted with water subsequently.
as §9
(§11) The agar medium (19 ml) was dissolved once and then kept at 50° C., and to this solution 1 ml of each diluted […] was added until reaching the intended concentration and mixed thoroughly and solidified.
(§12) Subsequently, the cell suspension of each test strain was sampled using a platinum loop spatula, with which an about 1 cm line was drawn on the antibacterial agent-supplemented agar plate. Each plate was incubated at the respective temperature for the respective time period shown below.

[10] = system: Cladosporium cladosporioides (IFO6348); experiment: as above; conditions: Potato dextrose agar medium, 25° C. for 5 days
Source text: as §8
as §2, with “aeruglnosa” for “aeruginosa”, “(ATCC11480),” for “(ATCC11480) and”, “(ATCC14521), MRSA and Cladosporium cladosporioides (IFO6348).” for “(ATCC14521).”
The bacterial cell suspension of Cladosporium cladosporioides was obtained by incubation in a potato dextrose agar medium at 25° C. for 7 days followed by collecting cells with a platinum loop spatula followed by suspending […] the cells in a sterilized physiological saline followed by filtration through a sterilized gauze to adjust at a cell density at about 10^6 cells /ml.
as §10, §9, §11, §12

With “4-Guanidinobutyldodecanamide hydrochloride [LAG-HCl]” the “MIC, S. mutans” value [1] was 5 to 7.5 µg/mL, the “MIC, C. albicans” value [2] was 500 to 750 µg/mL and the “MIC, P. acnes” value [3] was 7.5 to 10 µg/mL. For the same compound, the “MIC, A. niger” value [4] was 200 to 300 µg/mL, the “MIC, E. coli” value [5] was 75 to 100 µg/mL and the “MIC, M. furfur” value [6] was 100 to 150 µg/mL. The “MIC, P. aeruginosa” value [7] was 75 to 100 µg/mL, the “MIC, T. mentagrophytes” value [8] was 75 to 100 µg/mL and the “MIC, S. aureus” value [9] was 7.5 to 10 µg/mL. For the same compound, the “antibacterial activity against any of the test strains (verdict in words)” value (shortened to “antibacterial activity against any”) (test strains) was “satisfactory antibacterial activity”.

With `CC(=O)O.CCCCCCCCCC(=O)NCCCCNC(=N)N` [DAG-AcOH, 4-guanidinobutyldecanamide acetate] the “MIC, MRSA” value (MRSA) was 50 to 75 µg/mL, the “MIC, C. cladosporioides” value [10] was 200 to 300 µg/mL and the “MIC, S. mutans” value [1] was 20 to 30 µg/mL. The “MIC, C. albicans” value [2] was 300 to 500 µg/mL, the “MIC, P. acnes” value [3] was 30 to 50 µg/mL and the “MIC, A. niger” value [4] was 300 to 500 µg/mL. For the same compound, the “MIC, E. coli” value [5] was 150 to 200 µg/mL, the “MIC, M. furfur” value [6] was 50 to 75 µg/mL and the “MIC, P. aeruginosa” value [7] was 200 to 300 µg/mL. The “MIC, T. mentagrophytes” value [8] was 75 to 100 µg/mL, the “MIC, S. aureus” value [9] was 30 to 50 µg/mL and the “antibacterial activity against any” value (test strains) was “satisfactory antibacterial activity”.

For `CC(=O)O.CCCCCCCCCCCC(=O)NCCCCNC(=N)N` [LAG-AcOH, 4-guanidinobutyldodecanamide acetate], the “MIC, MRSA” value (MRSA) was 10 to 15 µg/mL, the “MIC, C. cladosporioides” value [10] was 150 to 200 µg/mL and the “MIC, S. mutans” value [1] was 5 to 7.5 µg/mL. For the same compound, the “MIC, C. albicans” value [2] was 300 to 500 µg/mL, the “MIC, P. acnes” value [3] was 10 to 15 µg/mL and the “MIC, A. niger” value [4] was 200 to 300 µg/mL. For the same compound, the “MIC, E. coli” value [5] was 30 to 50 µg/mL, the “MIC, M. furfur” value [6] was 50 to 75 µg/mL and the “MIC, P. aeruginosa” value [7] was 75 to 100 µg/mL. For the same compound, the “MIC, T. mentagrophytes” value [8] was 30 to 50 µg/mL, the “MIC, S. aureus” value [9] was 2 to 3 µg/mL and the “antibacterial activity against any” value (test strains; acetate) was “satisfactory antibacterial activity; also recorded: the best antibacterial activity”.

For `CC(=O)O.CCCCCCCCCCCCCC(=O)NCCCCN=C(N)N` [MAG-AcOH, 4-guanidinobutymyristilamide acetate], the “MIC, MRSA” value (MRSA) was 10 to 15 µg/mL, the “MIC, C. cladosporioides” value [10] was 200 to 300 µg/mL and the “MIC, S. mutans” value [1] was 3 to 5 µg/mL. The “MIC, C. albicans” value [2] was 500 to 750 µg/mL, the “MIC, P. acnes” value [3] was 10 to 15 µg/mL and the “MIC, A. niger” value [4] was 300 to 500 µg/mL. For the same compound, the “MIC, E. coli” value [5] was 50 to 75 µg/mL, the “MIC, M. furfur” value [6] was 100 to 150 µg/mL and the “MIC, P. aeruginosa” value [7] was 300 to 500 µg/mL. For the same compound, the “MIC, T. mentagrophytes” value [8] was 75 to 100 µg/mL, the “MIC, S. aureus” value [9] was 3 to 5 µg/mL and the “antibacterial activity against any” value (test strains) was “satisfactory antibacterial activity”.

“N-cocoyl-L-arginine ethyl ester-DL-pyrrolidone carboxylate [CAE, reference compound]” was tested, and the “MIC, S. mutans” value [1] was 5 to 7.5 µg/mL, the “MIC, C. albicans” value [2] was 300 to 500 µg/mL and the “MIC, P. acnes” value [3] was 20 to 30 µg/mL. The “MIC, A. niger” value [4] was 300 to 500 µg/mL, the “MIC, E. coli” value [5] was 75 to 100 µg/mL and the “MIC, M. furfur” value [6] was 75 to 100 µg/mL. For the same compound, the “MIC, P. aeruginosa” value [7] was 200 to 300 µg/mL, the “MIC, T. mentagrophytes” value [8] was 100 to 150 µg/mL and the “MIC, S. aureus” value [9] was 5 to 7.5 µg/mL. The “antibacterial activity against any” value (test strains) was “satisfactory antibacterial activity”.
